Structures can show the parent of a compound that is named as a salt.
Experiments:
[1] = tested on: scopolamine induced memory deficits; experiment: dark avoidance assay (reversal of scopolamine induced memory deficit); format: in vivo, male CFW mice; conditions: sc, scopolamine 3.0 mg/kg sc
Description: The 5-amino-5,6,7,8-tetrahydroquinolines and related compounds of the present invention are useful as agents for the relief of memory dysfunction, particularly dysfunctions associated with decreased cholinergic activity such as those found in Alzheimer's disease. […] In this assay, three groups of 15 male CFW mice were used, a vehicle/vehicle control group, a scopolamine/vehicle group, and a scopolamine/drug group. Thirty minutes prior to training, the vehicle/vehicle control group received normal saline subcutaneously, and the scopolamine/vehicle and scopolamine/drug groups received scopolamine subcutaneously (3.0 mg/kg, administered as scopolamine hydrobromide). Five minutes prior to training, the vehicle/vehicle control and scopolamine/vehicle groups received distilled water and the scopolamine/drug group received the test compound in distilled water.
The training/testing apparatus consisted of a plexiglass box approximately 48 cm long, 30 cm high and tapering from 26 cm wide at the top to 3 cm wide at the bottom. The interior of the box was divided equally by a vertical barrier into a light compartment (illuminated by 25-watt reflector lamp suspended 30 cm from the floor) and a dark compartment (covered). There was a hole at the bottom of the barrier 2.5 cm wide and 6 cm tall and a trap door which could be dropped to prevent an animal from passing between the two compartments. A Coulbourn Instruments small animal shocker was attached to two metal plates which ran the entire length of the apparatus, and a photocell was placed in the dark compartment 7.5 cm from the vertical barrier and 2 cm off the floor. The behavioral session was controlled by PDP 11/34 minicomputer.
At the end of the pretreatment interval, an animal was placed in the light chamber directly under the light fixture, facing away from the door to the dark chamber. The apparatus was then covered and the system activated. If the mouse passed through the barrier to the dark compartment and broke the photocell beam within 180 seconds, the trap door dropped to block escape to the light compartment and an electric shock was administered at an intensity of 0.4 milliamps for three seconds. The animal was then immediately removed from the dark compartment and placed in its home cage. […] The latency in seconds for each mouse was recorded.
The test day latency in seconds for each animal was recorded and the animals were then discarded.
The high degree of variability (due to season of the year, housing conditions, and handling) found in one trial passive avoidance paradigm is well known. To control for this fact, individual cutoff (CO) values were determined for each test, compensating for interest variability. […] Thus, the CO value was defined as the second highest latency time in the control group to more accurately reflect the 1/15 expected control responders in each test group. Experiments with a variety of standards repeated under a number of environmental conditions led to the development of the following empirical criteria: for a valid test, the CO value had to be less than 120 sec and the vehicle/vehicle control group had to have at least 5/15 animals with latencies greater than CO. For a compound to be considered active the scopolamine/compound group had to have at least 3/15 mice with latencies greater than CO.
The results of the dark avoidance test are expressed as the number of animals per group (%) in which this scopolamine induced memory deficit is blocked as measured by an increase in the latency period.

Acetylcholinesterase = target: T1, Acetylcholinesterase (Rattus norvegicus, UniProt P37136); experiment: in vitro inhibition of acetylcholinesterase activity (modified Ellman assay, rat corpora striata homogenate); format: biochemical, Male Wistar rats; conditions: acetylthiocholine 5 millimolar final, pH 7.2, 10 min preincubation at 37° C
T1 construct: corpora strita dissected free, weighed and homogenized in 19 volumes; from tissue; host or cells: corpora striata of male Wistar rats, crude homogenate in 0.05 M phosphate buffer pH 7.2
Procedure: In this assay, a modification of a test described by G. L. Ellman, et al., Biochem. Pharmacol., 7, 88 (1961), the following reagents are prepared and employed:
1. 0.05M Phosphate Buffer (pH 7.2)
A solution of monobasic sodium phosphate monhydrate (6.85 g) in distilled water (100 ml) is added to a solution of dibasic sodium phosphate heptahydrate (13.4 g) and distilled water (100 ml) until a pH of 7.2 was attained. The solution was diluted 1 to 10 with distilled water.
The 0.05M Phosphate Buffer (pH 7.2) was added to acetylthiocholine (198 mg) to a total volume of 100 ml, i.e., a quantity sufficient (gs) to 100 ml.
3. 5,5-Dithiobisnitrobenzoic Acid in Buffer
The 0.05M Phosphate Buffer (pH 7.2) was added to 5,5-dithiobisnitrobenzoic acid to a total volume of 100 ml, i.e., a quantity sufficient (gs) to 100 ml.
4. Stock Solution of Drug
A 2 millimolar stock solution of the test drug is prepared in a quantity sufficient of a suitable solvent, either acetic acid or dimethyl sulfoxide to volume with 5,5-Dithiobisnitrobenzene Acid in Buffer. Stock Solution of Drug is serially diluted (1:10) so that the final cuvette concentration is 10^-4 molar.
Male Wistar rats are decapitated, brains rapidly removed, corpora strita dissected free, weighed and homogenized in 19 volumes (approximately 7 mg potein/ml) of 0.05M phosphate Buffer (pH 7.2) using a Potter-Elvehjem homogenizer. A 25 μl aliquot of this suspension is added to 1 ml of the vehicle or various concentrations of the test drug and preincubated for 10 minutes at 37° C. Enzyme activity is measured with a Beckman DU-50 spectrophotometer with the following software and instrument settings:
1. Kinetics Soft-Pac™ Module #598273;
6. Cuvettes--2 ml cuvettes using auto 6--sampler;
7. Blank--1 for each substrate concentration;
8. Interval time--15 seconds (15 or 30 seconds for kinetics);
9. Total time--5 minutes (5 or 10 minutes for kinetics);
13. Results--yes (gives slope); and
Reagents are added to the blank and sample cuvettes as follows:
Blank values are determined for each run to control for non-enzymatic hydrolysis of substrate and these values are automatically subtracted by the Kindata program available on kinetics soft-pac module. This program also calculates the rate of absorbance change for each cuvette.
5,5-Dithiobisnitrobenzoic Acid concentration is 0.5 millimolar yielding 0.25 millimolar final concentration. [formula]

T1 sequence (P37136 32-614): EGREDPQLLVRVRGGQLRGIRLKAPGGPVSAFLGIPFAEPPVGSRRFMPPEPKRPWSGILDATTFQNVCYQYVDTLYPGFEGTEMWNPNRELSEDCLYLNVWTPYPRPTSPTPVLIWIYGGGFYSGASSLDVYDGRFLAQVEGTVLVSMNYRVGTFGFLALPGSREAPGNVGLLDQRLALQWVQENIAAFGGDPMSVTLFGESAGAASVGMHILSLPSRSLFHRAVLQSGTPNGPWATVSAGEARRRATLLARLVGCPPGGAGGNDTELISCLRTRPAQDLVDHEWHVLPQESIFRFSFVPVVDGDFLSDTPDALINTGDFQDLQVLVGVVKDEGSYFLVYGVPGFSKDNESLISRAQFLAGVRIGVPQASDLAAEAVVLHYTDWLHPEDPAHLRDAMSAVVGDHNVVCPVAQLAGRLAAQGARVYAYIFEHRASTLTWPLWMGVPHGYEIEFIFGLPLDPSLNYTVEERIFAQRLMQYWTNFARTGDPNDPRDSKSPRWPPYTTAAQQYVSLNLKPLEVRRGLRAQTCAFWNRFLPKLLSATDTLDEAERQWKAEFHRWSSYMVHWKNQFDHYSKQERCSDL

Compound | Percent of Animals with Scopolamine Induced Memory Deficit Reversal ([1]; dose 1.0 mg/kg) | IC50 (Acetylcholinesterase) | further results
Cl.Cl.Cn1c2c(ccc1=O)C(NCCc1ccccc1)CCC2.O (stereo not shown) [5,6,7,8-Tetrahydro-1-methyl-5-[(2-phenylethyl)amino]-2(1H)-quinolinone dihydrochloride monohydrate] | 33% |  | 
CCCn1c2c(ccc1=O)C(NCCc1ccccc1)CCC2 (stereo not shown) [5,6,7,8-Tetrahydro-5-[(2-phenylethyl)amino]-1-propyl-2(1H)-quinolinone fumarate] |  | 3.1 µM | 
COc1ccc(CCNC2CCCc3c2ccc(=O)n3C)cc1 (stereo not shown) [5,6,7,8-Tetrahydro-5-[[2-(4-methoxyphenyl)ethyl]amino]-1-methyl-2(1H)-quinolinone] |  | 9.6 µM | Percent of Animals with Scopolamine Induced Memory Deficit Reversal ([1]; dose 0.3 mg/kg): 27%
Cn1c2c(ccc1=O)C(NCCc1ccc(Cl)c(Cl)c1)CCC2 (stereo not shown) [5-[[2-(3,4-Dichlorophenyl)ethyl]amino]-5,6,7,8-tetrahydro-1-methyl-2(1H)-quinolinone] | 21% | 2.9 µM | 
Cn1c2c(ccc1=O)C(NCCc1ccc(Cl)cc1)CCC2 (stereo not shown) [5-[[2-(4-Chlorophenyl)ethyl]amino]-5,6,7,8-tetrahydro-1-methyl-2(1H)-quinolinone] |  | 6.6 µM | 
CC(=O)NC1(C)CCCc2[nH]c(=O)ccc21 (stereo not shown) [N-(1,2,5,6,7,8-Hexahydro-5-methyl-2-oxo-5-quinolinyl)acetamide] |  |  | Percent of Animals with Scopolamine Induced Memory Deficit Reversal ([1]; dose 0.16 mg/kg): 20%
CC(=O)N(OCc1ccccc1)C1CCCc2nc(OCc3ccccc3)ccc21.Cl (stereo not shown) [N-(Phenylmethoxy)-N-[5,6,7,8-tetrahydro-2-(phenylmethoxy)-5-quinolinyl]acetamide hydrochloride] | 20% |  | 
CNC(=O)Oc1ccc2c(c1)[C@]1(C)CCN(C)[C@@H]1N2C [physostigmine, reference compound] |  |  | Percent of Animals with Scopolamine Induced Memory Deficit Reversal ([1]; dose 0.31 mg/kg): 20%
